# “And” between values parts separate entries of the source, which are not always exact repeats. Equal entries are not always repeated.
# Assays:
# [1] = Testing of various sources of LPS with CaSt in water; format: biochemical
# Description: Therefore, for the methods described above, the activity of endotoxin was tested with various sources of endotoxin. Laboratory grown endotoxin is purified while natural endotoxin will be present with other substances such as proteins and phospholipids.
# The laboratory grown endotoxin used in this experiment was supplied by Charles River Laboratories.
# Natural airborne endotoxin was captured using an electret filter. Electret filters are produced from dielectric polymer fibers that develop an electrical charge when air flows past them, capturing the endotoxin along with other particles. The endotoxin was extracted from the filter by placing the filter in endotoxin free water for an extended period of time.
# Two other natural sources of endotoxin were obtained from water samples in the surrounding environment. One source was a pool of sitting rain water and other being a small puddle on the side of the Raritan River. The sitting rain water (SRW) was purified via chlorination and 0.2 μm filter. The Raritan River Water (RRW) was not altered in anyway. The same testing procedure was conducted for all sources of endotoxin.
# [2] = Detection of LPS in water in presence of CaSt and EDTA and Tween 20; format: biochemical; conditions: 8330 EU spiked
# Description: Further testing was performed with addition of EDTA and Polysorbate 20 reagents to verify permanent removal of LPS/endotoxin activity, by adding EDTA and Polysorbate 20 to the extraction solutions to test for potential recovery of endotoxin activity when introduced to these two substances.
# The testing was performed in aqueous solutions with added EDTA and Polysorbate 20, with suspended CaSt present in some solutions in varying quantities. […] The tubes were vortexed for 1 minute and placed in a 37 C bath for 1 hour. The tubes were removed from the bath and again vortexed for 1 minute. The solutions were diluted and tested for endotoxin using the Kinetic Chromogenic Method for Endotoxin Quantitation, Charles River Laboratories, Charleston S.C. […] These samples were rigorously vortexed and tested using the Kinetic Chromogenic Method for Endotoxin Quantitation, Charles River Laboratories, Charleston S.C.
# [3] = Animal study: calcium stearate alone dosed intraperitoneally (NC-2); format: in vivo; conditions: NC-2: 0.2 g Calcium Stearate in 5.0 mL normal saline, intraperitoneal, female rats, observed 4 days
# Description: (§1) An animal study was conducted with 30 female rats with weights ranging from 250-300 g and acclimated for 5 days. All rats were dosed with intraperitoneal injections using 18 gauge needles. The rats were broken into 6 groups. A negative control (NC-1) dosed 5 rats with 5 mL of normal saline solution. […] A positive control (PC-1) dosed 5 rats with 2.5 million EU in a 5 mL saline solution. A second positive control (PC-2) was conducted dosing 5 rats with 5 million endotoxin units in a 5 mL normal saline solution. Two experimental test groups were conducted.
# (§2) The negative control samples also had no toxicity.
# [4] = Animal study: intraperitoneal endotoxin mixed with calcium stearate; format: in vivo; conditions: female rats, 4 days, endotoxin alone: severe toxicity
# Description: as §1, §2
# [5] = Efficacy of sonicated CaSt suspension stored 1 month; format: biochemical
# Description: 10 ml of LRW water (LAL reagent water, contains no endotoxin) containing 0.04 g of CaSt suspension was sonicated using Misonix Probe Sonicator, Model: S-4000, Amplitude: 30, Time: 30 seconds and then the suspension was stored for 1 month at ambient temperature. Then 1 ml of the above suspension was added to 10 ml endotoxin containing water SRW and the resulting endotoxin concentrations in the combined solution measured after 15 min and 30 min, with the results presented in Table 14.
# [6] = Charles River Standard, 8330 EU spiked, 0.05 g Calcium Stearate
# [7] = Charles River Standard, 8330 EU spiked, 0.15 g Calcium Stearate
# [8] = Charles River Standard, 8330 EU spiked, 0.25 g Calcium Stearate
# [9] = Dust Filter Extraction Water, 9280 EU spiked, 0.01 g Calcium Stearate
# [10] = Dust Filter Extraction Water, 9280 EU spiked, 0.25 g Calcium Stearate
# [11] = RRW endotoxin, 4340 EU spiked, 0.01 g Calcium Stearate
# [12] = RRW endotoxin, 4340 EU spiked, 0.1 g Calcium Stearate
# [13] = RRW endotoxin, 4340 EU spiked, 0.25 g Calcium Stearate
# [14] = SRW endotoxin, 11100 EU spiked, 0.01 g Calcium Stearate
# [15] = CaSt suspension 0.007 g in 5 mL
# [16] = CaSt suspension 0.007 g with 0.1M EDTA and 0.05% Tween20
# [17] = CaSt suspension 0.018 g in 5 mL
# [18] = CaSt suspension 0.018 g with 0.1M EDTA and 0.05% Tween20
# [19] = CaSt suspension 0.028 g in 5 mL
# [20] = CaSt suspension 0.028 g with 0.1M EDTA and 0.05% Tween20
substance,measurement,setting,value
Calcium Stearate,percent of endotoxin recovered,"[1]; 0.1 grams of calcium stearate and higher, all sources of endotoxin",under 5%
same,Percent of Endotoxin Detected,"[1]; Charles River Standard, 8330 EU spiked, 0.007 g Calcium Stearate",48.0%
same,Percent of Endotoxin Detected,"[1]; Charles River Standard, 8330 EU spiked, 0.018 g Calcium Stearate",17.9%
same,Percent of Endotoxin Detected,"[1]; Charles River Standard, 8330 EU spiked, 0.028 g Calcium Stearate",2.8%
same,Endotoxin Detected,[1]; [6],190.5 EU
same,Percent of Endotoxin Detected,[1]; [6],2.3%
same,Endotoxin Detected,[1]; [7],86.5 EU
same,Percent of Endotoxin Detected,[1]; [7],1.0%
same,Endotoxin Detected,[1]; [8],38.5 EU
same,Percent of Endotoxin Detected,[1]; [8],0.5%
same,Endotoxin Detected,[1]; [9],3440 EU
same,Percent of Endotoxin Detected,[1]; [9],37.1%
same,Endotoxin Detected,[1]; [10],28.5 EU
same,Percent of Endotoxin Detected,[1]; [10],0.3%
same,Endotoxin Detected,[1]; [11],960 EU
same,Percent of Endotoxin Detected,[1]; [11],22.1%
same,Endotoxin Detected,[1]; [12],165 EU
same,Percent of Endotoxin Detected,[1]; [12],3.8%
same,Endotoxin Detected,[1]; [13],70 EU
same,Percent of Endotoxin Detected,[1]; [13],1.6%
same,Percent of Endotoxin Detected,"[1]; RRW endotoxin, 4340 EU spiked, 0.35 g Calcium Stearate",2.6%
same,Endotoxin Detected,[1]; [14],2780 EU
same,Percent of Endotoxin Detected,[1]; [14],25.0%
same,Percent of Endotoxin Detected,"[1]; SRW endotoxin, 11100 EU spiked, 0.25 g Calcium Stearate",1.0%
same,Endotoxin Detected,[2]; [15],3995 EU
same,Percent detected Endotoxin,[2]; [15],48.0%
same,Endotoxin Detected,[2]; [16],5050 EU
same,Percent detected Endotoxin,[2]; [16],60.6%
same,Endotoxin Detected,[2]; [17],1487.5 EU
same,Percent detected Endotoxin,[2]; [17],17.9%
same,Endotoxin Detected,[2]; [18],1545 EU
same,Percent detected Endotoxin,[2]; [18],18.5%
same,Endotoxin Detected,[2]; [19],235 EU
same,Percent detected Endotoxin,[2]; [19],2.8%
same,Endotoxin Detected,[2]; [20],255 EU
same,Percent detected Endotoxin,[2]; [20],3.1%
same,Results (toxicity observed),[3],No Toxicity
same,Results (toxicity observed),"[4]; T-1: 2,500,000 EU + 0.2 g Calcium Stearate in 5.0 mL normal saline dosed IP",No Toxicity
same,Results (toxicity observed),"[4]; T-1: 2,500,000 EU + 0.2 g Calcium Stearate in 5.0 mL normal saline dosed IP, listed as calcium stearate",no toxicity or adverse effects
same,Results (toxicity observed),"[4]; T-2: 5,000,000 EU + 0.2 g Calcium Stearate in 5.0 mL normal saline dosed IP",No Toxicity
same,Results (toxicity observed),"[4]; T-2: 5,000,000 EU + 0.2 g Calcium Stearate in 5.0 mL normal saline dosed IP, listed as calcium stearate",no toxicity or adverse effects
same,Endotoxin EU/mL (15 min after addition of CaSt suspension),"[5]; 0.04 g CaSt in 10 ml LRW sonicated, stored 1 month, initial endotoxin 732.5 EU/mL, 15 min",372 EU/mL and 362 EU/mL
same,Endotoxin EU/mL (30 min after addition of CaSt suspension),"[5]; 0.04 g CaSt in 10 ml LRW sonicated, stored 1 month, initial endotoxin 732.5 EU/mL, 30 min",384 EU/mL and 278 EU/mL
same,Percent Endotoxin Removal (15 min),"[5]; sonicated CaSt suspension stored 1 month, 15 min",49.2% and 50.6%
same,Percent Endotoxin Removal (30 min),"[5]; sonicated CaSt suspension stored 1 month, 30 min",47.6% and 62.0%
